Laboratory results reported in BindingDB's records for doi:10.3109/14756369909030324 (University of Catania, 1999).

Target: T1, Amine oxidase [flavin-containing] B (Rattus norvegicus, UniProt P19643)
T1 sequence (P19643 whole entry): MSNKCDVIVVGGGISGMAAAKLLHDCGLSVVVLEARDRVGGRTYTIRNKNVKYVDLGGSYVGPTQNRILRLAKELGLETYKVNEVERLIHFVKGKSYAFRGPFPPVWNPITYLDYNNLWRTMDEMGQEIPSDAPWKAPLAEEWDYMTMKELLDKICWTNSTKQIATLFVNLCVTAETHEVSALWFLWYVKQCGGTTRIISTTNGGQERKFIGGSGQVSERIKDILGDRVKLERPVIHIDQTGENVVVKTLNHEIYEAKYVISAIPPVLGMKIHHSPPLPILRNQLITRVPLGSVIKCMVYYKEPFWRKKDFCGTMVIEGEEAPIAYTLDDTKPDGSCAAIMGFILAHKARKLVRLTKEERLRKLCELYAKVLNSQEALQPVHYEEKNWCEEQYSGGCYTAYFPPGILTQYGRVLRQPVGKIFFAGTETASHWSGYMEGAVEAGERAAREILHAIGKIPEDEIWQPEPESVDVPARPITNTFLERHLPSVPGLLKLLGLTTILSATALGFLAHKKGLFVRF
Assay: Enzyme Assay
Conditions: 37 °C
Protocol: MAO-B activity was measured by the spectrofluorimetric method of Morinan and Garratt.

Row | Compound | IC50 [µM]
1 | COc1ccc(-c2csc(NC(=O)CCN3CCCCC3)n2)cc1 [Thiazolyl derivative, 11] | 313
2 | CCN(CC)CCC(=O)c1sc(NC)nc1C [Thiazolyl derivative, 1] | 82.3
3 | O=C(CN1CCCCC1)Nc1nc(-c2ccccc2)cs1 [Thiazolyl derivative, 9] | 90.2
4 | Cc1nc(-c2ccccc2)sc1C(=O)CCN1CCCCC1 [Thiazolyl derivative, 3] | 43.1
5 | Cc1nc(-c2ccccc2)sc1C(=O)CCN1CCOCC1 [Thiazolyl derivative, 4] | 7.8
6 | CCN(CC)CCC(=O)c1sc(-c2ccc(C)cc2)nc1C [Thiazolyl derivative, 2] | 7.5
7 | COc1ccc(-c2csc(NC(=O)CN3CCCCC3)n2)cc1 [Thiazolyl derivative, 10] | 411
